Laboratory results from patent US20050227989A1, “Polycyclic thiazoles as potassium ion channel modulators” (ICAgen, Inc., priority 2004, published 2005).
Like-named read-outs stand apart in the source and are kept apart here.

Legend:
hSK2 = hSK2 (Homo sapiens, UniProt Q9H2S1); experiment: 86Rb+ efflux assay for compound activity towards hSK channels; assay type: cell-based; conditions: read-out: hSK2 Inhibitory Activity
[1] = molecular target: T1, recombinant human SK4 (hIK1 or hKCa4) channels (Homo sapiens, UniProt O15554+P0DP23); conditions: applied to the inside of SK4 channel-expressing membrane patches; cited from earlier work
T1 construct: host or cells: HEK 293

SK2 subtype channels = SK2 subtype channels (Rattus norvegicus, UniProt P70604); conditions: patch clamp; cited from earlier work
[2] = 86Rb+ efflux stimulated with calcium ionophore, drug 0.01 to 30 μM in EBSS

Molecule | IC50 (hSK2; [2]) [nM] | other results
O=C1CCCN1c1ccc(Nc2nc(-c3nccs3)cs2)nc1 [1-[6-([2,4′]Bithiazolyl-2′-ylamino)-pyridin-3-yl]-pyrrolidin-2-one] | 30 to 100 | –
CN1CCN(c2ccc(Nc3nc(-c4cnccn4)cs3)nc2)C(=O)C1 [4-Methyl-1-[6-(4-pyrazin-2-yl-thiazol-2-ylamino)-pyridin-3-yl]-piperazin-2-one] | 1000 to 30000 | –
COC(=O)c1ccc(Nc2nc(-c3ccccn3)cs2)nc1 [6-(4-Pyridin-2-yl-thiazol-2-ylamino)-nicotinic acid methyl ester] | 1000 to 30000 | –
c1ccc(-c2csc(Nc3nc4ccccc4[nH]3)n2)nc1 [(1H-Benzoimidazol-2-yl)-(4-pyridin-2-yl-thiazol-2-yl)-amine] | 100 to 1000 | –
Cc1cnc(Nc2nc(-c3ccccn3)cs2)c(Br)c1 [(3-Bromo-5-methyl-pyridin-2-yl)-(4-pyridin-2-yl-thiazol-2-yl)-amine] | 1000 to 30000 | –
Cc1ccnc(Nc2nc(-c3cnccn3)cs2)c1 [(4-Methyl-pyridin-2-yl)-(4-pyrazin-2-yl-thiazol-2-yl)-amine] | 30 to 100 | –
c1ccc(-c2csc(Nc3ncccn3)n2)nc1 [(4-Pyridin-2-yl-thiazol-2-yl)-pyrimidin-2-yl-amine] | – | IC50 (hSK2): 1000 to 30000 nM
Brc1sc(Nc2ccccn2)nc1-c1ccccn1 [(5-Bromo-4-pyridin-2-yl-thiazol-2-yl)-pyridin-2-yl-amine] | 1000 to 30000 | –
Brc1ccc(Nc2nc(-c3ccccn3)cs2)nc1 [(5-Bromo-pyridin-2-yl)-(4-pyridin-2-yl-thiazol-2-yl)-amine] | 1000 to 30000 | –
Cc1ccnc(Nc2nc(-c3ccccn3)c(Cl)s2)c1 [(5-Chloro-4-pyridin-2-yl-thiazol-2-yl)-(4-methyl-pyridin-2-yl)-amine] | 100 to 1000 | –
CCCCCCc1ccc(Nc2nc(-c3ccccn3)cs2)nc1 [(5-Hexyl-pyridin-2-yl)-(4-pyridin-2-yl-thiazol-2-yl)-amine] | 1000 to 30000 | –
CC(C)c1ccc(Nc2nc(-c3ccccn3)cs2)nc1 [(5-Isopropyl-pyridin-2-yl)-(4-pyridin-2-yl-thiazol-2-yl)-amine] | 30 to 100 | –
COc1sc(Nc2ccccn2)nc1-c1ccccn1 [(5-Methoxy-4-pyridin-2-yl-thiazol-2-yl)-pyridin-2-yl-amine] | 1000 to 30000 | –
c1ccc(-c2csc(Nc3ccc(N4CCOCC4)cn3)n2)nc1 [(5-Morpholin-4-yl-pyridin-2-yl)-(4-pyridin-2-yl-thiazol-2-yl)-amine] | 30 to 100 | –
[Ba+2] [Barium] | – | activation of SK4 channels [1]: activated SK4 channels in a concentration-dependent manner
Nc1ccc(Nc2nc(-c3nccs3)cs2)nc1 [N^2-[2,4′]Bithiazolyl-2′-yl-pyridine-2,5-diamine] | 30 to 100 | –
c1ccc(Nc2nc(-c3cccs3)cs2)nc1 [Pyridin-2-yl-(4-thiophen-2-yl-thiazol-2-yl)-amine] | 1000 to 30000 | –

Molecule | IC50 (hSK2; [2]) [nM] | other results
Brc1ccc(Nc2nc(-c3nccs3)cs2)nc1 [[2,4′]Bithiazolyl-2′-yl-(5-bromo-pyridin-2-yl)-amine] | 1000 to 30000 | –
CC(C)c1ccc(Nc2nc(-c3nccs3)cs2)nc1 [[2,4′]Bithiazolyl-2′-yl-(5-isopropyl-pyridin-2-yl)-amine] | 1000 to 30000 | –
COc1ccc(Nc2nc(-c3nccs3)cs2)nc1 [[2,4′]Bithiazolyl-2′-yl-(5-methoxy-pyridin-2-yl)-amine] | 100 to 1000 | –
O=[N+]([O-])c1ccc(Nc2nc(-c3nccs3)cs2)nc1 [[2,4′]Bithiazolyl-2′-yl-(5-nitro-pyridin-2-yl)-amine] | 1000 to 30000 | –
c1csc(-c2ccc(Nc3nc(-c4nccs4)cs3)nc2)c1 [[2,4′]Bithiazolyl-2′-yl-(5-thiophen-2-yl-pyridin-2-yl)-amine] | 1000 to 30000 | –
c1cncc(-c2ccc(Nc3nc(-c4nccs4)cs3)nc2)c1 [[3,3′]Bipyridinyl-6-yl-[2,4′]bithiazolyl-2′-yl-amine] | 1000 to 30000 | –
Cc1ccnc(Nc2nc(-c3c(C)nc4ccccn34)cs2)c1 [[4-(2-Methyl-imidazo[1,2-a]pyridin-3-yl)-thiazol-2-yl]-(4-methyl-pyridin-2-yl)-amine] | 1000 to 30000 | –
CN(C)CCC=C1c2ccccc2CCc2ccccc21 [amitriptyline] | – | block of SK2 channel currents (SK2 subtype channels): block SK2 channel currents with micromolar affinity
[Cd] [cadmium] | – | activation of SK4 channels [1]: activated SK4 channels in a concentration-dependent manner
[Ca+2] [calcium] | – | activation of SK4 channels [1]: activated SK4 channels in a concentration-dependent manner
[Co+2] [cobalt] | – | activation of SK4 channels [1]: did not activate
[Fe] [iron] | – | activation of SK4 channels [1]: did not activate
[Pb+2] [lead] | – | activation of SK4 channels [1]: activated SK4 channels in a concentration-dependent manner
[Mg+2] [magnesium] | – | activation of SK4 channels [1]: did not activate
[Sr+2] [strontium] | – | activation of SK4 channels [1]: activated SK4 channels in a concentration-dependent manner
[Zn+2] [zinc] | – | activation of SK4 channels [1]: did not activate
[(4-Methyl-pyridin-2-yl)-(4-pyridin-2-yl-thiazol-2-yl)-amine]2 Fe(II) nH2ClO4 Complex | < 30 | –

Continued, in another order:

IC50 (hSK2; [2]) [nM] | Molecule | other results
< 30 | O=C1CCCN1c1ccc(Nc2nc(-c3cnccn3)cs2)nc1 [1-[6-(4-Pyrazin-2-yl-thiazol-2-ylamino)-pyridin-3-yl]-pyrrolidin-2-one] | –
1000 to 30000 | CN1CCN(c2ccc(Nc3nc(-c4ccccn4)cs3)nc2)C(=O)C1 [4-Methyl-1-[6-(4-pyridin-2-yl-thiazol-2-ylamino)-pyridin-3-yl]-piperazin-2-one] | –
1000 to 30000 | Cc1cc(C)nc(Nc2nc(-c3ccccn3)cs2)c1 [(4,6-Dimethyl-pyridin-2-yl)-(4-pyridin-2-yl-thiazol-2-yl)-amine] | –
30 to 100 | CC1CCN(c2ccc(Nc3nc(-c4ccccn4)cs3)nc2)CC1 [(4-Methyl-3,4,5,6-tetrahydro-2H-[1,3′]bipyridinyl-6′-yl)-(4-pyridin-2-yl-thiazol-2-yl)-amine] | –
30 to 100 | Cc1ccnc(Nc2nc(-c3cc(C)ccn3)cs2)c1 [(4-Methyl-pyridin-2-yl)-[4-(4-methyl-pyridin-2-yl)-thiazol-2-yl]-amine] | –
1000 to 30000 | FC(F)(F)c1ccc(Nc2nc(-c3ccccn3)cs2)nc1 [(4-Pyridin-2-yl-thiazol-2-yl)-(5-trifluoromethyl-pyridin-2-yl)-amine] | –
1000 to 30000 | c1ccc(-c2csc(Nc3nccs3)n2)nc1 [(4-Pyridin-2-yl-thiazol-2-yl)-thiazol-2-yl-amine] | –
1000 to 30000 | Fc1ccc(Nc2nc(-c3ccccn3)cs2)nc1 [(5-Fluoro-pyridin-2-yl)-(4-pyridin-2-yl-thiazol-2-yl)-amine] | –
100 to 1000 | Cc1cc(I)cnc1Nc1nc(-c2ccccn2)cs1 [(5-Iodo-3-methyl-pyridin-2-yl)-(4-pyridin-2-yl-thiazol-2-yl)-amine] | –
100 to 1000 | Cc1cc(Nc2nc(-c3ccccn3)cs2)ncc1I [(5-Iodo-4-methyl-pyridin-2-yl)-(4-pyridin-2-yl-thiazol-2-yl)-amine] | –
100 to 1000 | C=C(C)c1ccc(Nc2nc(-c3cnccn3)cs2)nc1 [(5-Isopropenyl-pyridin-2-yl)-(4-pyrazin-2-yl-thiazol-2-yl)-amine] | –
1000 to 30000 | CC(C)c1ccc(Nc2nc(-c3cnccn3)cs2)nc1 [(5-Isopropyl-pyridin-2-yl)-(4-pyrazin-2-yl-thiazol-2-yl)-amine] | –
< 30 | Cc1sc(Nc2ccccn2)nc1-c1ccccn1 [(5-Methyl-4-pyridin-2-yl-thiazol-2-yl)-pyridin-2-yl-amine] | –
30 to 100 | Cc1ccc(Nc2nc(-c3cnccn3)cs2)nc1 [(5-Methyl-pyridin-2-yl)-(4-pyrazin-2-yl-thiazol-2-yl)-amine] | –
1000 to 30000 | CSc1sc(Nc2ccccn2)nc1-c1ccccn1 [(5-Methylsulfanyl-4-pyridin-2-yl-thiazol-2-yl)-pyridin-2-yl-amine] | –
1000 to 30000 | c1ccc(-c2ccc(Nc3nc(-c4ccccn4)cs3)nc2)cc1 [(5-Phenyl-pyridin-2-yl)-(4-pyridin-2-yl-thiazol-2-yl)-amine] | –
1000 to 30000 | CC(C)(C)c1ccc(Nc2nc(-c3ccccn3)cs2)nc1 [(5-tert-Butyl-pyridin-2-yl)-(4-pyridin-2-yl-thiazol-2-yl)-amine] | –
1000 to 30000 | c1ccc(Nc2csc(Nc3ccccn3)n2)nc1 [N^2,N^4-Di-pyridin-2-yl-thiazole-2,4-diamine] | –
< 30 | c1ccc(Nc2nc(-c3ccccn3)cs2)nc1 [Pyridin-2-yl-(4-pyridin-2-yl-thiazol-2-yl)-amine] | –
100 to 1000 | Cc1ccnc(Nc2nc(-c3nccs3)cs2)c1 [[2,4′]Bithiazolyl-2′-yl-(4-methyl-pyridin-2-yl)-amine] | –
1000 to 30000 | Clc1ccc(Nc2nc(-c3nccs3)cs2)nc1 [[2,4′]Bithiazolyl-2′-yl-(5-chloro-pyridin-2-yl)-amine] | –
1000 to 30000 | C=C(C)c1ccc(Nc2nc(-c3nccs3)cs2)nc1 [[2,4′]Bithiazolyl-2′-yl-(5-isopropenyl-pyridin-2-yl)-amine] | –
100 to 1000 | c1csc(-c2csc(Nc3ccc(N4CCOCC4)cn3)n2)n1 [[2,4′]Bithiazolyl-2′-yl-(5-morpholin-4-yl-pyridin-2-yl)-amine] | –
1000 to 30000 | CN1CCN(c2ccc(Nc3nc(-c4nccs4)cs3)nc2)CC1 [[2,4′]Bithiazolyl-2′-yl-[5-(4-methyl-piperazin-1-yl)-pyridin-2-yl]-amine] | –
1000 to 30000 | Cc1ccnc(Nc2nc(-c3c(C)nc4cc(C)ccn34)cs2)c1 [[4-(2,7-Dimethyl-imidazo[1,2-a]pyridin-3-yl)-thiazol-2-yl]-(4-methyl-pyridin-2-yl)-amine] | –
1000 to 30000 | Cc1ccnc(Nc2nc(-c3c(C)nc4ncccn34)cs2)c1 [[4-(2-Methyl-imidazo[1,2-a]pyrimidin-3-yl)-thiazol-2-yl]-(4-methyl-pyridin-2-yl)-amine] | –
< 30 | [(4-Methyl-pyridin-2-yl)-(4-pyridin-2-yl-thiazol-2-yl)-amine]2 Zn(II) nHCl Complex | –
